From patent US20050101595A1, “N-containing cycloalkyl-substituted amino-thiazole derivatives and pharmaceutical compositions for inhibiting cell proliferation and methods for their use” (PFIZER INC., priority 2003, published 2005)
Where a name gives a salt, the structure may show the parent alone.

The molecules below were run on HCT-116 cell line (assay: Inhibition of cell growth, tetrazolium salt (MTT) assay). Conditions: HCT116 cells; compound at 250 nM.
Type: cell-based
Procedure: Inhibition of Cell Growth: Assessment of Cytotoxicity:
Inhibition of cell growth was measured using the tetrazolium salt assay, which is based on the ability of viable cells to reduce 3-(4,5-dimethylthiazol-2-yl)-2,5-[2H]-diphenyltetrazolium bromide (MTT) to formazan (Mossman, Journal of Immunological Methods, vol. 65 (1983), pp. 55-58). The water-insoluble purple formazan product was then detected spectrophotometrically. The HCT-116 cell line was used as a representative cancer cell line and grown in 96-well plates. Cells were plated in McCoy's 5A Medium at a volume of 135 μl/well. Plates were incubated for four hours before addition of inhibitor compounds. Different concentrations of inhibitor compounds were added in 0.5% (v/v) dimethylsulfoxide (15 μLuwell), and cells were incubated at 37° C. (5% CO2) for three to five days. At the end of the incubation, MTT was added to a final concentration of 0.2 mg/mL, and cells were incubated for 4 hours more at 37° C. After centrifugation of the plates and removal of medium, the absorbance of the formazan (solubilized in dimethylsulfoxide) was measured at 540 nm. […] All results were compared to control cells treated only with 0.5% (v/v) dimethylsulfoxide.

Row | SMILES | % Inhibition HCT116 @ 250 nM [%]
1 | CC1CCCC(NCCS(=O)(=O)N2CCC(Nc3nc(N)c(C(=O)c4c(F)cccc4F)s3)CC2)C1 (mixture of isomers) [Example S57] | 73
2 | CC1CCCN1CCS(=O)(=O)N1CCC(Nc2nc(N)c(C(=O)c3c(F)cccc3F)s2)CC1 (racemic) [Example S40] | 93

Same assay, conditions: Homo sapiens, HCT-116, 120 h, first HCT-116 column (c4); MTT, three to five days; read-out: HCT-116 IC50

Row | IC50 [µM] | SMILES
3 | 0.1 | CN(C)CC#Cc1ccc(S(=O)(=O)N2CCC(Nc3nc(N)c(C(=O)c4c(F)cccc4F)s3)CC2)cc1 [Example I9, 1-(4-Amino-2-{1-[4-(3-dimethylamino-prop-1-ynyl)-benzenesulfonyl]-piperidin-4-ylamino}-thiazol-5-yl)-1-(2,6-difluoro-phenyl)-methanone D-Glucuronic Acid Salt]
4 | 0.1 | C[C@H](NCCS(=O)(=O)N1CCC(Nc2nc(N)c(C(=O)c3c(F)cccc3F)s2)CC1)c1ccccc1 [Example K47]
5 | 0.17 | Nc1nc(NC2CCN(S(=O)(=O)CCNCc3ccccc3)CC2)sc1C(=O)c1c(F)cccc1F [Example K48]
6 | 0.18 | CC(C)(NCCS(=O)(=O)N1CCC(Nc2nc(N)c(C(=O)c3c(F)cccc3F)s2)CC1)c1ccccc1 [Example K49, (4-Amino-2-{1-[2-(1-methyl-1-phenyl-ethylamino)-ethanesulfonyl]-piperidin-4-ylamino}-thiazol-5-yl)-(2,6-difluoro-phenyl)-methanone]
7 | 0.2 | Nc1nc(NC2CCN(S(=O)(=O)CCNCc3c(F)cccc3F)CC2)sc1C(=O)c1c(F)cccc1F [Example K50, (4-Amino-2-{1-[2-(2,6-difluoro-benzylamino)-ethanesulfonyl]-piperidin-4-ylamino}-thiazol-5-yl)-(2,6-difluoro-phenyl)-methanone]
8 | 0.17 | CC(C)(C)CNCCS(=O)(=O)N1CCC(Nc2nc(N)c(C(=O)c3c(F)cccc3F)s2)CC1 [Example K51, (4-Amino-2-{1-[2-(2,2-dimethyl-propylamino)-ethanesulfonyl]-piperidin-4-ylamino}-thiazol-5-yl)-(2,6-difluoro-phenyl)-methanone]
9 | 0.11 | Nc1nc(NC2CCN(S(=O)(=O)CCNCc3cccc(Cl)c3)CC2)sc1C(=O)c1c(F)cccc1F [Example K52, (4-Amino-2-{1-[2-(3-chloro-benzylamino)-ethanesulfonyl]-piperidin-4-ylamino}-thiazol-5-yl)-(2,6-difluoro-phenyl)-methanone]
10 | 0.23 | Nc1nc(NC2CCN(S(=O)(=O)CCN(Cc3ccccc3)CC3CC3)CC2)sc1C(=O)c1c(F)cccc1F [Example K53, (4-Amino-2-{1-[2-(benzyl-cyclopropylmethyl-amino)-ethanesulfonyl]-piperidin-4-ylamino}-thiazol-5-yl)-(2,6-difluoro-phenyl)-methanone]

Same assay, conditions: Homo sapiens, HCT-116, 120 h, second HCT-116 column (c5); MTT, three to five days; read-out: HCT-116 IC50

Row | IC50 [µM] | SMILES
11 | 0.5 | CN(C)CC#Cc1ccc(S(=O)(=O)N2CCC(Nc3nc(N)c(C(=O)c4c(F)cccc4F)s3)CC2)cc1 [Example I9, 1-(4-Amino-2-{1-[4-(3-dimethylamino-prop-1-ynyl)-benzenesulfonyl]-piperidin-4-ylamino}-thiazol-5-yl)-1-(2,6-difluoro-phenyl)-methanone D-Glucuronic Acid Salt]
12 | 0.25 | C[C@H](NCCS(=O)(=O)N1CCC(Nc2nc(N)c(C(=O)c3c(F)cccc3F)s2)CC1)c1ccccc1 [Example K47]
13 | 0.5 | Nc1nc(NC2CCN(S(=O)(=O)CCNCc3ccccc3)CC2)sc1C(=O)c1c(F)cccc1F [Example K48]
14 | 0.5 | CC(C)(NCCS(=O)(=O)N1CCC(Nc2nc(N)c(C(=O)c3c(F)cccc3F)s2)CC1)c1ccccc1 [Example K49, (4-Amino-2-{1-[2-(1-methyl-1-phenyl-ethylamino)-ethanesulfonyl]-piperidin-4-ylamino}-thiazol-5-yl)-(2,6-difluoro-phenyl)-methanone]
15 | 0.5 | Nc1nc(NC2CCN(S(=O)(=O)CCNCc3c(F)cccc3F)CC2)sc1C(=O)c1c(F)cccc1F [Example K50, (4-Amino-2-{1-[2-(2,6-difluoro-benzylamino)-ethanesulfonyl]-piperidin-4-ylamino}-thiazol-5-yl)-(2,6-difluoro-phenyl)-methanone]
16 | 0.5 | CC(C)(C)CNCCS(=O)(=O)N1CCC(Nc2nc(N)c(C(=O)c3c(F)cccc3F)s2)CC1 [Example K51, (4-Amino-2-{1-[2-(2,2-dimethyl-propylamino)-ethanesulfonyl]-piperidin-4-ylamino}-thiazol-5-yl)-(2,6-difluoro-phenyl)-methanone]
17 | 0.25 | Nc1nc(NC2CCN(S(=O)(=O)CCNCc3cccc(Cl)c3)CC2)sc1C(=O)c1c(F)cccc1F [Example K52, (4-Amino-2-{1-[2-(3-chloro-benzylamino)-ethanesulfonyl]-piperidin-4-ylamino}-thiazol-5-yl)-(2,6-difluoro-phenyl)-methanone]
18 | 0.56 | Nc1nc(NC2CCN(S(=O)(=O)CCN(Cc3ccccc3)CC3CC3)CC2)sc1C(=O)c1c(F)cccc1F [Example K53, (4-Amino-2-{1-[2-(benzyl-cyclopropylmethyl-amino)-ethanesulfonyl]-piperidin-4-ylamino}-thiazol-5-yl)-(2,6-difluoro-phenyl)-methanone]

Same assay, conditions: Homo sapiens, HCT-116, HCT116 cells; compound at 250 nM; read-out: % Inhibition HCT116 @ 250 nM

Row | SMILES | inhibition at 0.25 µM [%]
19 | CCCN(CCS(=O)(=O)N1CCC(Nc2nc(N)c(C(=O)c3c(F)cccc3F)s2)CC1)CC1CC1 [Example S1] | 36
20 | CCCCN(CC#N)CCS(=O)(=O)N1CCC(Nc2nc(N)c(C(=O)c3c(F)cccc3F)s2)CC1 [Example S2] | 18
21 | CC(C)(C)N(CCO)CCS(=O)(=O)N1CCC(Nc2nc(N)c(C(=O)c3c(F)cccc3F)s2)CC1 [Example S3] | 25
22 | CN(CCO)CCS(=O)(=O)N1CCC(Nc2nc(N)c(C(=O)c3c(F)cccc3F)s2)CC1 [Example S4] | 25
23 | CCN(CCO)CCS(=O)(=O)N1CCC(Nc2nc(N)c(C(=O)c3c(F)cccc3F)s2)CC1 [Example S5] | 26
24 | Nc1nc(NC2CCN(S(=O)(=O)CCN(CCO)CCO)CC2)sc1C(=O)c1c(F)cccc1F [Example S6] | 13
25 | Nc1nc(NC2CCN(S(=O)(=O)CCN3CCCCCC3)CC2)sc1C(=O)c1c(F)cccc1F [Example S7] | 22
26 | CC(C)N(CCS(=O)(=O)N1CCC(Nc2nc(N)c(C(=O)c3c(F)cccc3F)s2)CC1)C1CCCCC1 [Example S8] | 91
27 | CN(CCS(=O)(=O)N1CCC(Nc2nc(N)c(C(=O)c3c(F)cccc3F)s2)CC1)C1CCCCC1 [Example S9] | 43
28 | CCN(CCS(=O)(=O)N1CCC(Nc2nc(N)c(C(=O)c3c(F)cccc3F)s2)CC1)C1CCCCC1 [Example S10] | 62
29 | CC(O)CN(CCS(=O)(=O)N1CCC(Nc2nc(N)c(C(=O)c3c(F)cccc3F)s2)CC1)CC(C)O (stereo not shown) [Example S11] | 13
30 | NC(=O)C1CCCN(CCS(=O)(=O)N2CCC(Nc3nc(N)c(C(=O)c4c(F)cccc4F)s3)CC2)C1 (stereo not shown) [Example S12] | 19
31 | Nc1nc(NC2CCN(S(=O)(=O)CCN3CCCCC3CO)CC2)sc1C(=O)c1c(F)cccc1F (stereo not shown) [Example S13] | 24
32 | CC1CCCC(C)N1CCS(=O)(=O)N1CCC(Nc2nc(N)c(C(=O)c3c(F)cccc3F)s2)CC1 (stereo not shown) [Example S14] | 91
33 | CC1CCCCN1CCS(=O)(=O)N1CCC(Nc2nc(N)c(C(=O)c3c(F)cccc3F)s2)CC1 (stereo not shown) [Example S15] | 46
34 | CC1CN(CCS(=O)(=O)N2CCC(Nc3nc(N)c(C(=O)c4c(F)cccc4F)s3)CC2)CC(C)O1 (stereo not shown) [Example S16] | 20
35 | Nc1nc(NC2CCN(S(=O)(=O)CCN3CCN(C=O)CC3)CC2)sc1C(=O)c1c(F)cccc1F [Example S17] | 19
36 | Nc1nc(NC2CCN(S(=O)(=O)CCN3CCC(O)C3)CC2)sc1C(=O)c1c(F)cccc1F (stereo not shown) [Example S18] | 14
37 | Nc1nc(NC2CCN(S(=O)(=O)CCN3CCC[C@H]3CO)CC2)sc1C(=O)c1c(F)cccc1F [Example S19] | 15
38 | NC(=O)[C@@H]1CCCN1CCS(=O)(=O)N1CCC(Nc2nc(N)c(C(=O)c3c(F)cccc3F)s2)CC1 [Example S20] | 18
39 | Nc1nc(NC2CCN(S(=O)(=O)CCN3CCCC3)CC2)sc1C(=O)c1c(F)cccc1F [Example S21] | 35
40 | Nc1nc(NC2CCN(S(=O)(=O)CCN3CCSC3)CC2)sc1C(=O)c1c(F)cccc1F [Example S22] | 18

Row | SMILES | inhibition at 0.25 µM [%]
41 | Nc1nc(NC2CCN(S(=O)(=O)CCN3CCCC(CO)C3)CC2)sc1C(=O)c1c(F)cccc1F (stereo not shown) [Example S23] | 18
42 | Nc1nc(NC2CCN(S(=O)(=O)CCN3CCC(O)CC3)CC2)sc1C(=O)c1c(F)cccc1F [Example S24] | 14
43 | Nc1nc(NC2CCN(S(=O)(=O)CCN3CCC(CCO)CC3)CC2)sc1C(=O)c1c(F)cccc1F [Example S25] | 10
44 | CN(CCc1ccccn1)CCS(=O)(=O)N1CCC(Nc2nc(N)c(C(=O)c3c(F)cccc3F)s2)CC1 [Example S26] | 17
45 | Nc1nc(NC2CCN(S(=O)(=O)CCN3CCc4ccccc4C3)CC2)sc1C(=O)c1c(F)cccc1F [Example S27] | 27
46 | CN(CCS(=O)(=O)N1CCC(Nc2nc(N)c(C(=O)c3c(F)cccc3F)s2)CC1)Cc1ccccc1 [Example S28] | 80
47 | CN(CCc1ccccc1)CCS(=O)(=O)N1CCC(Nc2nc(N)c(C(=O)c3c(F)cccc3F)s2)CC1 [Example S29] | 18
48 | COC(CN(C)CCS(=O)(=O)N1CCC(Nc2nc(N)c(C(=O)c3c(F)cccc3F)s2)CC1)OC [Example S30] | 18
49 | C=CCN(C)CCS(=O)(=O)N1CCC(Nc2nc(N)c(C(=O)c3c(F)cccc3F)s2)CC1 [Example S31] | 27
50 | C=CCN(CC=C)CCS(=O)(=O)N1CCC(Nc2nc(N)c(C(=O)c3c(F)cccc3F)s2)CC1 [Example S32] | 69
51 | CC(C)N(CCS(=O)(=O)N1CCC(Nc2nc(N)c(C(=O)c3c(F)cccc3F)s2)CC1)C(C)C [Example S33] | 79
52 | CN(CCS(=O)(=O)N1CCC(Nc2nc(N)c(C(=O)c3c(F)cccc3F)s2)CC1)Cc1cccnc1 [Example S34] | 21
53 | CCN(CCS(=O)(=O)N1CCC(Nc2nc(N)c(C(=O)c3c(F)cccc3F)s2)CC1)CC(C)(C)O [Example S35] | 58
54 | CCCCN(CCO)CCS(=O)(=O)N1CCC(Nc2nc(N)c(C(=O)c3c(F)cccc3F)s2)CC1 [Example S36] | 17
55 | CCCCN(CCC#N)CCS(=O)(=O)N1CCC(Nc2nc(N)c(C(=O)c3c(F)cccc3F)s2)CC1 [Example S37] | 24
56 | CC(C)CN(C)CCS(=O)(=O)N1CCC(Nc2nc(N)c(C(=O)c3c(F)cccc3F)s2)CC1 [Example S38] | 55
57 | Nc1nc(NC2CCN(S(=O)(=O)CCN3CCCC(O)C3)CC2)sc1C(=O)c1c(F)cccc1F (stereo not shown) [Example S39] | 14
58 | CN(CCS(=O)(=O)N1CCC(Nc2nc(N)c(C(=O)c3c(F)cccc3F)s2)CC1)CC1OCCO1 [Example S41] | 18
59 | COC[C@@H]1CCCN1CCS(=O)(=O)N1CCC(Nc2nc(N)c(C(=O)c3c(F)cccc3F)s2)CC1 [Example S42] | 12
60 | CCN(CC)CCN(CC)CCS(=O)(=O)N1CCC(Nc2nc(N)c(C(=O)c3c(F)cccc3F)s2)CC1 [Example S43] | 13
61 | CC(C)N(CCS(=O)(=O)N1CCC(Nc2nc(N)c(C(=O)c3c(F)cccc3F)s2)CC1)Cc1ccccc1 [Example S44] | 55
